Where two headings read alike, the source gives them in different places.
How the values were obtained:
MCF7 = test: SRB antiproliferative/antigrowth assay; assay type: cell-based, human; conditions: for GI50: SRB, 48 h post-treatment, mean of triplicates of at least two experiments, read-out: GI50 MCF7
Experimental: (§1) The antigrowth effects of 4-piperazinylquinoline sulfonyl analogs on human breast tumor cells was initially evaluated using MDA-MB468 (a PTEN defective, EGFR positive breast adenocarcioma), MDA-MB231 (p53 and pRB mutated, triple-negative breast carcinoma), and MCF7 (p53+/−, invasive ductal breast carcinoma) cell lines. In addition, the cytotoxicity of all the compounds was also evaluated with the 184B5 and MCF10A non-cancer immortalized breast epithelial cell lines, to determine if these newly synthesized compounds have differential cytotoxic effects on cancer and non-cancer cells. The panel of three breast cancer cell lines with different genetic back ground and the well-studied two non-cancer immortalized breast cell lines would provide insights into the efficacy and toxicity of the test compounds in the different genetic background and at different stages of tumor development. The dose response of each cell line was established by determining the number of viable cells after 48 h of continuous drug treatment against seven different concentrations (100 µM to 0.0064 µM) of each compound. The reading of sulphorodamine B (SRB) staining is known to accurately reflect the level of total cellular macromolecules/cell growth/proliferation[6],[23]. […] The data for CQ and cisplatin were included as references. […] The differences in the GI50 values may be attributable to such factors as the nature of the sulfonyl group and the halogen substitution on the 7th position of the 4-piperazinylquinoline ring system, and the genetic and biochemical background of the cell lines.
(§2) Antiproliferative/antigrowth effects were determined by a SRB-based protocol[6],[23]. For a typical screening experiment, 5,000–10,000 cells were inoculated into 100 µL medium per well of a 96-well microtiter plate as described previously. Briefly, after the inoculation, the microtiter plate was incubated at 37 °C, 5% CO2, 95% air and 100% relative humidity for 24 h, prior to addition of experimental drugs. Some of the sample wells were fixed with 25 µL of 50% tricholoroacetic acid (TCA) as a control of the cell population for each cell line at the time of drug addition (Tz). An aliquot of the frozen stock was thawed and diluted to a desired final maximum test-concentration with complete medium. Two to ten-fold serial dilutions were made to provide a total of seven drug concentrations (and a control [C]). Following addition of drugs, the culture plate was incubated for additional 48 h. Cells were fixed in situ by slowly adding 25 µL of ice-cold 50% (w/v) TCA (final concentration, 10% TCA), and were then incubated for 60 min at 4 °C. The supernatant was discarded, and the plate was washed five times with tap water, followed by air-dry. 50 µL of SRB solution at 0.4% (w/v) in 1% acetic acid was added to each well, and the plate was incubated for >30 min at room temperature. Unbound SRB was removed by five washes with tap water, followed by air-drying. The cells “stained” with SRB were solubilized with 10 mM trizma base, and the absorbance was read on an automated plate reader at a wavelength of 515–564 nm. The relative growth rate (%) was calculated for each of the compound concentrations according to the following formula: (Ti−Tz)/(C−Tz)×100
(§3) In the formula, time zero (Tz), control growth (C), and OD for different concentration of tested compounds (Ti). The GI50 for each compound was obtained from a non-linear Sigmoidal dose-response (variable slope) curve which is fitted by GraphPad Prism v.4.03 software. Values were calculated for each of these parameters if the level of activity was reached. However, if the effect was not reached or was exceeded, the value for that parameter was expressed as greater or less than the maximum or minimum concentration tested.

MDA-MB231 = test: SRB antiproliferative/antigrowth assay; assay type: cell-based, human; conditions: for GI50: SRB, 48 h post-treatment, mean of triplicates of at least two experiments, read-out: GI50 MB231
Experimental: as §1, §2, §3

MDA-MB468 = test: SRB antiproliferative/antigrowth assay; assay type: cell-based, human; conditions: SRB, 48 h post-treatment, mean of triplicates of at least two experiments, read-out: GI50 MB468
Experimental: as §1, §2, §3

184B5 = test: SRB antiproliferative/antigrowth assay, non-cancer cells; assay type: cell-based, human; conditions: read-out: GI50 184B5
Experimental: as §1, §2, §3

MCF10A = test: as above; assay type: cell-based, human; conditions: SRB, 48 h post-treatment, non-cancer breast epithelial cells, read-out: GI50 MCF10A
Experimental: as §1, §2, §3

[1] = Homo sapiens, 184B5, 48 h, SRB, 48 h post-treatment, non-cancer breast epithelial cells
[2] = SRB, 48 h post-treatment, non-cancer breast epithelial cells

Row | Compound | GI50 (MCF7; Homo sapiens, MCF7, 48 h) [µM] | GI50 (MDA-MB231; Homo sapiens, MDA-MB-231, 48 h) [µM] | GI50 (MDA-MB468; Homo sapiens, MDA-MB-468, 48 h) [µM] | GI50 (184B5; [1]) [µM] | GI50 (MCF10A; Homo sapiens, MCF-10A, 48 h) [µM] | melting point [°C] | also measured
1 | O=S(=O)(NCCCNc1ccnc2cc(C(F)(F)F)ccc12)c1ccc(Cl)cc1Cl [Compound 38, 2,4-Dichloro-N-[3-(7-trifluoromethyl-quinolin-4-ylamino)-propyl]-benzenesulfonamide] | 5.2 ± 0.3 | 7 ± 0.6 | 3.9 ± 0.1 | 3.2 ± 0.1 | 5.3 ± 0.3 | 117 to 119 | –
2 | COC(=O)c1sccc1S(=O)(=O)N1CCN(c2ccnc3cc(Cl)ccc23)CC1 [Compound 15, Methyl 3-(4-(7-chloroquinolin-4-yl)piperazin-1-ylsulfonyl)thiophene-2-carboxylate] | 22.4 ± 0.2 | 40.4 ± 0.8 | 30.2 ± 0.7 | 15.2 ± 0.2 | 14.6 ± 0.1 | 117 to 119 | –
3 | 7-Chloro-4-(4-(biphenylsulfonyl)piperazin-1-yl)quinoline [Compound 9] | – | – | – | – | – | – | GI50 (MCF7): 9.2 ± 0.2 µM; GI50 (MDA-MB231): 26.2 ± 0.6 µM; GI50 (MDA-MB468): 18.2 ± 0.5 µM; GI50 (184B5; [2]): 16.4 ± 0.2 µM; GI50 (MCF10A): 12.4 ± 0.2 µM
4 | CN(C)c1cccc2c(S(=O)(=O)NCCCNc3ccnc4cc(C(F)(F)F)ccc34)cccc12 [Compound 41, 5-Dimethylamino-naphthalene-1-sulfonic acid [3-(7-trifluoromethyl-quinolin-4-ylamino)-propyl]-amide] | 7.7 ± 0.6 | 14.2 ± 1 | 9.7 ± 0.3 | 3.7 ± 0.2 | 6.5 ± 0.3 | 199 to 201 | –
5 | COC(=O)c1sccc1S(=O)(=O)N1CCN(c2ccnc3cc(C(F)(F)F)ccc23)CC1 [Compound 24, 3-[4-(7-Trifluoromethyl-quinolin-4-yl)-piperazine-1-sulfonyl]-thiophene-2-carboxylic acid methyl ester] | 16 ± 0.2 | 34.7 ± 0.7 | 23.9 ± 0.6 | 15.9 ± 0.1 | 15.8 ± 0.1 | 117 to 119 | –
6 | CS(=O)(=O)N1CCN(c2ccnc3cc(Cl)ccc23)CC1 [Compound 7, 7-Chloro-4-(4-(methylsulfonyl)piperazin-1-yl)quinoline] | 22.9 ± 0.6 | 42.7 ± 0.8 | 35.1 ± 0.8 | 11.5 ± 0.2 | 15.3 ± 0.1 | – | –
7 | O=[N+]([O-])c1ccc(S(=O)(=O)NCCCNc2ccnc3cc(Cl)ccc23)c([N+](=O)[O-])c1 [Compound 31, N-[3-(7-Chloro-quinolin-4-ylamino)-propyl]-2,4-dinitro-benzenesulfonamide] | – | – | – | – | – | 238 to 240 | GI50 (MCF7; Homo sapiens, MCF7): 6.2 ± 0.3 µM; increase in antigrowth activity against MDA-MB231 compared to mono nitro substituted compounds (30 and 39) (MDA-MB231): 1.7–2.3 fold; GI50 (MDA-MB231; Homo sapiens, MDA-MB-231): 8.9 ± 0.7 µM; GI50 (MDA-MB468; Homo sapiens, MDA-MB-468): 7.4 ± 0.2 µM; GI50 (184B5; Homo sapiens, 184B5, 48 h): 9.1 ± 0.6 µM; GI50 (MCF10A; Homo sapiens, MCF-10A): 19.8 ± 0.9 µM
8 | O=S(=O)(NCCCNc1ccnc2cc(C(F)(F)F)ccc12)c1ccc(-c2ccccc2)cc1 [Compound 36, Biphenyl-4-sulfonic acid [3-(7-trifluoromethyl-quinolin-4-ylamino)-propyl]-amide] | 3.6 ± 0.3 | 6 ± 0.4 | 4.2 ± 0.2 | 2.8 ± 0.1 | 2.2 ± 0.3 | 110 to 112 | –
9 | O=S(=O)(c1ccc(Cl)cc1)N1CCN(c2ccnc3cc(Cl)ccc23)CC1 [Compound 10, 7-Chloro-4-(4-(4-chlorophenylsulfonyl)piperazin-1-yl)quinoline] | 7.6 ± 0.1 | 25.5 ± 0.7 | 16 ± 0.6 | 12.1 ± 0.2 | 8.7 ± 0.1 | – | increase in antigrowth activity on MCF7 in comparison to methyl substituted compound 7 (MCF7): 3 fold
10 | CS(=O)(=O)NCCCNc1ccnc2cc(Cl)ccc12 [Compound 25, N-[3-(7-Chloro-quinolin-4-ylamino)-propyl]-methanesulfonamide] | 23.1 ± 0.9 | 40.9 ± 1.5 | 28.6 ± 1 | 23.3 ± 0.9 | 39.1 ± 1.2 | – | –
11 | O=S(=O)(NCCCNc1ccnc2cc(Cl)ccc12)c1ccc(Cl)cc1 [Compound 28, 4-Chloro-N-(3-(7-chloroquinolin-4-ylamino)propyl)benzenesulfonamide] | 4.3 ± 0.3 | 11.8 ± 0.9 | 8.3 ± 0.7 | 6.4 ± 0.3 | 9.7 ± 0.1 | – | increase in potency on MDA-MB231 in comparison to methyl substituted compounds (25 and 34) (MDA-MB231): 3.5–4.4 fold
12 | COC(=O)c1sccc1S(=O)(=O)NCCCNc1ccnc2cc(Cl)ccc12 [Compound 33, 3-[3-(7-Chloro-quinolin-4-ylamino)-propylsulfamoyl]-thiophene-2-carboxylic acid methyl ester] | 4.22 | 5.97 | 4.18 | 15.7 | 16.5 | – | GI50 (MCF7): 4.2 ± 0.2 µM; more effective than cisplatin (MCF7) (MCF7; ratio of GI50 values): 6.1 fold; GI50 (MDA-MB231): 6.1 ± 0.5 µM; more effective than cisplatin (MDA-MB231) (MDA-MB231; ratio of GI50 values): 4.0 fold; GI50 (MDA-MB468): 4.1 ± 0.3 µM; GI50 (184B5; [2]): 15.7 ± 0.4 µM; GI50 (MCF10A): 16.5 ± 0.8 µM
13 | O=[N+]([O-])c1cccc(S(=O)(=O)NCCCNc2ccnc3cc(Cl)ccc23)c1 [Compound 30, N-(3-(7-chloroquinolin-4-ylamino)propyl)-3-nitrobenzenesulfonamide] | 8.6 ± 0.4 | 20.4 ± 1.2 | 9.2 ± 0.7 | 15.8 ± 0.9 | 31.1 ± 1.1 | – | –

— PMC6474902, “Examination of novel 4-aminoquinoline derivatives designed and synthesized by a hybrid pharmacophore approach to enhance their anticancer activities” (Scientific Reports, 2019)
